Test results as given in ChEMBL document CHEMBL1201862, “PubChem BioAssay data set” (2004).
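Five compound concentrations were applied to cells in 96-well plates for 48 hours; endpoints were derived by simple linear interpolation of the resulting dose-response curve. GI50 marks 50% less growth.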 Activity calls are given as the source filed them. No stated cut-off is given here; in the data, active = GI50 up to about 1.1 µM and inactive = higher.

How the values were obtained:
Test in all cases: growth of human tumour cells (NCI), 48 h
M19-MEL = system: M19-MEL
HOP-18 = system: HOP-18
SNB-78 = system: SNB-78
XF498 = system: XF498
KM-20L2 = system: KM-20L2
DMS-114 = system: DMS-114
LXFL 529 = system: LXFL 529
RXF 631 = system: RXF 631
T47D = system: T47D

Measured: GI50

O=c1[nH]c(=O)n(C2CC(O)C(CO)O2)cc1C#Cc1cc(F)cc(F)c1 (stereo not given)
inactive: M19-MEL > 100 µM | HOP-18 24.7 µM | SNB-78 > 100 µM | XF498 > 100 µM | KM-20L2 > 10 µM | DMS-114 > 100 µM | LXFL 529 > 100 µM | RXF 631 > 100 µM

COc1ccc(/N=N/c2c(N)nn(C)c2N)cc1
inactive: M19-MEL > 100 µM | HOP-18 92.3 µM | SNB-78 > 100 µM | KM-20L2 > 100 µM | DMS-114 > 100 µM | LXFL 529 > 100 µM | RXF 631 > 100 µM

[O-][S+]1Cc2ccccc2CS1 (stereo not given)
inactive: M19-MEL 17 µM | HOP-18 33 µM | SNB-78 14.7 µM | XF498 17.9 µM | KM-20L2 25.3 µM | LXFL 529 15.1 µM | RXF 631 48.9 µM

O=C1N=C(Nc2ccccc2Cl)SC1C(=O)Nc1ccc([N+](=O)[O-])cc1[N+](=O)[O-] (stereo not given)
inactive: M19-MEL > 100 µM | HOP-18 22 µM | SNB-78 > 100 µM | XF498 > 100 µM | KM-20L2 > 100 µM | DMS-114 75.3 µM | LXFL 529 > 100 µM | RXF 631 > 100 µM

O=C1C2=C(c3ccccc31)C(c1ccc(Cl)cc1)N1C(=O)CCSC1=N2 (stereo not given)
inactive: M19-MEL > 100 µM | XF498 41.3 µM | KM-20L2 > 100 µM | DMS-114 67.6 µM | LXFL 529 53.2 µM | RXF 631 > 100 µM

COc1ccc(/C=C2\CCC(CCN(C)C)(C3=CCCC3)C2=O)cc1Br (stereo not given)
inactive: M19-MEL 2.93 µM | HOP-18 12.4 µM | SNB-78 9.02 µM | XF498 3.24 µM | KM-20L2 1.59 µM | DMS-114 4.32 µM | LXFL 529 4.71 µM | RXF 631 14.7 µM

Cn1c2cc(O)cc(O)c2c(=O)c2c([N+](=O)[O-])cccc21
inactive: HOP-18 > 100 µM | SNB-78 > 100 µM | KM-20L2 > 100 µM | DMS-114 > 100 µM | LXFL 529 > 100 µM | RXF 631 > 100 µM

Cc1cc(C)c(-n2c(-c3ccc(Br)cc3)cs/c2=N\N=C2C=C(C(C)(C)C)C(=O)C(C(C)(C)C)=C2)c(C)c1
inactive: M19-MEL > 100 µM | HOP-18 > 100 µM | SNB-78 38.7 µM | XF498 29.9 µM | KM-20L2 > 100 µM | DMS-114 > 100 µM | LXFL 529 > 100 µM | RXF 631 > 100 µM | T47D > 100 µM

C/C=C/C=C/[C@H]1Cc2cc(O)cc(O)c2O1
inactive: M19-MEL 39.6 µM | HOP-18 > 100 µM | SNB-78 > 100 µM | XF498 46.5 µM | KM-20L2 62.4 µM | DMS-114 22.6 µM | LXFL 529 27.4 µM | RXF 631 62.4 µM

CCOc1ccc(NCC2CC/C(=C\c3ccccc3OC)C2=O)cc1 (stereo not given)
inactive: M19-MEL 8.95 µM | HOP-18 15.3 µM | SNB-78 16.5 µM | KM-20L2 14 µM | DMS-114 9.71 µM | LXFL 529 2.56 µM | RXF 631 23.8 µM

O=C(C#Cc1cnc(O)nc1O)c1ccccc1
inactive: M19-MEL 9.48 µM | HOP-18 15.7 µM | SNB-78 10.4 µM | DMS-114 15.1 µM | RXF 631 14 µM

CC(C)CS(=O)(=O)/C(=C(\c1ccc(Br)cc1)S(=O)(=O)CC(C)C)c1ccc(Br)cc1
inactive: M19-MEL > 100 µM | HOP-18 > 100 µM | SNB-78 97.7 µM | XF498 > 100 µM | KM-20L2 > 100 µM | LXFL 529 > 100 µM | RXF 631 > 100 µM

CCCC(Sc1ccccc1)P(=O)(c1ccccc1)c1ccccc1 (stereo not given)
inactive: M19-MEL 34.6 µM | SNB-78 37.6 µM | KM-20L2 > 100 µM | DMS-114 34.8 µM | RXF 631 30.1 µM

O=C1[C@H]2ON(c3ccccc3)C(c3ccc(Cl)cc3)[C@H]2C(=O)N1c1ccc(Cc2ccc(N3C(=O)[C@@H]4ON(c5ccccc5)C(c5ccc(Cl)cc5)[C@@H]4C3=O)cc2)cc1 (stereo not given in full)
inactive: M19-MEL > 100 µM | HOP-18 > 100 µM | SNB-78 > 100 µM | KM-20L2 > 100 µM | DMS-114 > 100 µM | LXFL 529 94.8 µM | RXF 631 > 100 µM

CS(=O)(=O)c1c(N)c2nc(Cl)cn2c2nc3ccccc3nc12
inactive: M19-MEL > 100 µM | SNB-78 > 100 µM | XF498 > 100 µM | KM-20L2 > 100 µM | DMS-114 > 100 µM | LXFL 529 > 100 µM | RXF 631 > 100 µM
